Assay results as given in patent US9370515B2, “Mixed lineage kinase inhibitors and method of treatments” (CALIFIA BIO, INC., priority 2013, dated 2016).

Target: MLK-3 (Homo sapiens, UniProt Q16584)
Assay: Biochemical assay for the inhibition of kinase activity for MLK-3 (33P-ATP, HOTSPOT filter binding)
Conditions: activated MLK-3 20 nM, ATP 50 μM, myelin basic protein 20 μM, 20 minutes room temperature
Description: Biochemical Assay for the Inhibition of Kinase Activity for MLK-3: Myelin basic protein (20 μM final concentration) is dissolved in 20 mM Hepes (pH 7.5) containing […], […], 0.02% Brij35, 0.02 mg/ml BSA, 0.1 μM Na3VO4, 2 mM DTT, and 1% DMSO. Activated MLK-3 is added and mixed (20 nM final concentration), and inhibitors are added in DMSO. ^33P-ATP (specific activity 500 μCi/μL) is delivered into the reaction mixture to initiate the reaction (ATP concentration is 50 μM) and the mixture is incubated at room temperature for 20 minutes. % Activity is determined using a proprietary HOTSPOT™ microfluidic filter binding technology. See, Expert Opin. Drug Discov. 2008 June; 3(6): 607-621.

Chain of MLK-3 (Q16584 whole entry): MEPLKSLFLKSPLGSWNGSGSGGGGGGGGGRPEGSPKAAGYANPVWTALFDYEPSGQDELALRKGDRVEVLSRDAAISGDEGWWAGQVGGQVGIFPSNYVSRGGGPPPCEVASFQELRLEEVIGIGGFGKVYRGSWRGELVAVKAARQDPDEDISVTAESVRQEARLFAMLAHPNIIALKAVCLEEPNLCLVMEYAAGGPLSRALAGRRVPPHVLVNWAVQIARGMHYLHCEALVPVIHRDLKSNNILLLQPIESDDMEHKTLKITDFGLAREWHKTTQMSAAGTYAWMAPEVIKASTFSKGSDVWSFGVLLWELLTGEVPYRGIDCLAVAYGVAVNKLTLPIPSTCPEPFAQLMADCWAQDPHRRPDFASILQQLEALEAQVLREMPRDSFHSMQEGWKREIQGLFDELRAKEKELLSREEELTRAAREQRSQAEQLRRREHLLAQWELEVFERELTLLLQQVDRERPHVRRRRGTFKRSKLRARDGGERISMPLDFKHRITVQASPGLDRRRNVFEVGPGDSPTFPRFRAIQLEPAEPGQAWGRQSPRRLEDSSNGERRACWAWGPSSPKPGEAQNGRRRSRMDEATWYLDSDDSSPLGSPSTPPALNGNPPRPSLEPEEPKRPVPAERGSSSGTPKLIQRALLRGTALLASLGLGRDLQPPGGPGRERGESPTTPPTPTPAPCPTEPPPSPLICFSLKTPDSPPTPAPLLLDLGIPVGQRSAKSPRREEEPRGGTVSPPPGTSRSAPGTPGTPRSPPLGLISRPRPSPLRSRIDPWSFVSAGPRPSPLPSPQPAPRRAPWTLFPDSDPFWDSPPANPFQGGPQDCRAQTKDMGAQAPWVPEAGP

SMILES	IC50
O[C@H]1CC[C@H](Nc2ccc3ncc(-c4cc5ccncc5s4)n3n2)CC1 [Compound 219, trans-4-(3-(thieno[2,3-c]pyridin-2-yl)imidazo[1,2-b]pyridazin-6-ylamino)cyclohexanol]	< 5000 nM
COc1cncc2cc(-c3cnc4ccc(N[C@H]5CC[C@H](O)CC5)nn34)sc12 [Compound 213, trans-4-(3-(7-methoxythieno[3,2-c]pyridin-2-yl)imidazo[1,2-b]pyridazin-6-ylamino)cyclohexanol]	< 100 nM
CCCN(C)c1ccc2ncc(-c3ccc4[nH]ccc4c3)n2n1 [Compound 158, 3-(1H-indol-5-yl)-N-methyl-N-propylimidazo[1,2-b]pyridazin-6-amine]	< 5000 nM
O[C@H]1CCC[C@@H](Nc2ccc3ncc(-c4cc5ccccc5s4)n3n2)C1 (relative stereo) [Compound 122, cis-3-(3-(benzo[b]thiophen-2-yl)imidazo[1,2-b]pyridazin-6-ylamino)cyclohexanol]	100 to 500 nM
COc1ccc2cc(-c3cnc4ccc(N[C@H]5CC[C@H](O)CC5)nn34)sc2c1 [Compound 172, trans-4-(3-(6-methoxybenzo[b]thiophen-2-yl)imidazo[1,2-b]pyridazin-6-ylamino)cyclohexanol]	100 to 500 nM
Cc1cncc2cc(-c3cnc4ccc(N(C)[C@H]5CC[C@H](O)CC5)nn34)sc12 [Compound 221, trans-4-(N-methyl-N-(3-(7-methylthieno[3,2-c]pyridin-2-yl)imidazo[1,2-b]pyridazin-6-yl)amino)cyclohexanol]	100 to 500 nM
Cc1c(-c2cnc3ccc(N[C@H]4CC[C@H](O)CC4)nn23)sc2ccc(Cl)cc12 [Compound 164, trans-4-(3-(5-chloro-3-methylbenzo[b]thiophen-2-yl)imidazo[1,2-b]pyridazin-6-ylamino)cyclohexanol]	500 to 1000 nM
Oc1ccc(-c2cnc3ccc(N[C@H]4CC[C@H](O)CC4)nn23)cc1 [Compound 102, trans-4-(6-(4-hydroxycyclohexylamino)imidazo[1,2-b]pyridazin-3-yl)phenol]	< 5000 nM
c1cc2cc(-c3ccc4ncc(-c5ccc6[nH]ccc6c5)n4n3)ccc2[nH]1 [Compound 50, 3,6-di(1H-indol-5-yl)imidazo[1,2-b]pyridazine]	100 to 500 nM
CN1CCN(CCCNc2ccc3ncc(-c4cc5ccccc5s4)n3n2)CC1 [Compound 136, 3-(benzo[b]thiophen-2-yl)-N-(3-(4-methylpiperazin-1-yl)propyl)imidazo[1,2-b]pyridazin-6-amine]	< 5000 nM
O[C@H]1CC[C@H](Nc2ccc3ncc(-c4ccc5ccccc5c4)n3n2)CC1 [Compound 161, trans-4-(3-(naphthalen-3-yl)imidazo[1,2-b]pyridazin-6-ylamino)cyclohexanol]	100 to 500 nM
CO[C@H]1CC[C@H](N(C)c2ccc3ncc(-c4cc5cncc(C)c5s4)n3n2)CC1 [Compound 220, N-((1r,4r)-4-methoxycyclohexyl)-N-methyl-3-(7-methylthieno[3,2-c]pyridin-2-yl)imidazo[1,2-b]pyridazin-6-amine]	100 to 500 nM
Cc1cccc2cc(-c3cnc4ccc(N[C@H]5CC[C@H](O)CC5)nn34)[nH]c12 [Compound 196, trans-4-(3-(7-methyl-1H-indol-2-yl)imidazo[1,2-b]pyridazin-6-ylamino)cyclohexanol]	100 to 500 nM
OC[C@@H]1CCCN1c1ccc2ncc(-c3cc4ccccc4s3)n2n1 [Compound 127, ((S)-1-(3-(benzo[b]thiophen-2-yl)imidazo[1,2-b]pyridazin-6-yl)pyrrolidin-2-yl)methanol]	< 5000 nM
OC[C@H]1CC[C@H](Nc2ccc3ncc(-c4cc5ccccc5s4)n3n2)CC1 [Compound 139]	100 to 500 nM
OCCCCNc1ccc2ncc(-c3ccc4ccccc4c3)n2n1 [Compound 160, 4-(3-(naphthalen-3-yl)imidazo[1,2-b]pyridazin-6-ylamino)butan-1-ol]	500 to 1000 nM

Further lines, results first:

IC50	SMILES
100 to 500 nM	COc1ccc(N(C)c2ccc3ncc(-c4cc5cc(OC)c(OC)cc5s4)n3n2)cc1OC [Compound 75, 3-(5,6-dimethoxybenzo[b]thiophen-2-yl)-N-(3,4-dimethoxyphenyl)-N-methylimidazo[1,2-b]pyridazin-6-amine]
< 100 nM	COc1cc2cc(-c3cnc4ccc(N[C@H]5CC[C@](C)(O)CC5)nn34)sc2cc1OC [Compound 173, (1r,4r)-4-(3-(5,6-dimethoxybenzo[b]thiophen-2-yl)imidazo[1,2-b]pyridazin-6-ylamino)-1-methylcyclohexanol]
100 to 500 nM	OCCCCCNc1ccc2ncc(-c3cc4ccccc4s3)n2n1 [Compound 135, 5-(3-(benzo[b]thiophen-2-yl)imidazo[1,2-b]pyridazin-6-ylamino)pentan-1-ol]
< 5000 nM	COc1cc(Nc2ccc3ncc(-c4cc5cccc(OC(F)(F)F)c5s4)n3n2)ccc1OC(F)F [Compound 189, N-(4-(difluoromethoxy)-3-methoxyphenyl)-3-(7-(trifluoromethoxy)benzo[b]thiophen-2-yl)imidazo[1,2-b]pyridazin-6-amine]
< 5000 nM	COc1cc(Nc2ccc3ncc(-c4cc5cccc(OC(F)(F)F)c5s4)n3n2)ccc1OC(F)(F)F [Compound 190, N-(3-methoxy-4-(trifluoromethoxy)phenyl)-3-(7-(trifluoromethoxy)benzo[b]thiophen-2-yl)imidazo[1,2-b]pyridazin-6-amine]
100 to 500 nM	COc1cncc2cc(-c3cnc4ccc(N[C@H]5CC[C@H](OC)CC5)nn34)sc12 [Compound 217]
< 5000 nM	COC(=O)c1cccc(Nc2ccc3ncc(-c4ccc5[nH]ccc5c4)n3n2)c1 [Compound 61, methyl 3-(3-(1H-indol-5-yl)imidazo[1,2-b]pyridazin-6-ylamino)benzoate]
< 5000 nM	COc1ccc(Nc2ccc3ncc(-c4ccc(CO)s4)n3n2)cc1OC [Compound 84, (5-(6-(3,4-dimethoxyphenylamino)imidazo[1,2-b]pyridazin-3-yl)thiophen-2-yl)methanol]
< 100 nM	COc1cc2cc(-c3cnc4ccc(Nc5cccc(C(=O)O)c5)nn34)sc2cc1OC [Compound 71, 3-(3-(5,6-dimethoxybenzo[b]thiophen-2-yl)imidazo[1,2-b]pyridazin-6-ylamino)benzoic acid]
500 to 1000 nM	COc1cc2cc(-c3cnc4ccc(-c5ccc(CN6CCN(C)CC6)cc5)nn34)sc2cc1OC [Compound 73, 3-(5,6-dimethoxybenzo[b]thiophen-2-yl)-6-(4-((4-methylpiperazin-1-yl)methyl)phenyl)imidazo[1,2-b]pyridazine]
< 100 nM	COc1ccc(Nc2ccc3ncc(-c4cc5cnccc5s4)n3n2)cc1OC [Compound 206, N-(3,4-dimethoxyphenyl)-3-(thieno[3,2-c]pyridin-2-yl)imidazo[1,2-b]pyridazin-6-amine]
100 to 500 nM	COc1ccc2sc(-c3cnc4ccc(Nc5ccc(OC)c(OC)c5)nn34)cc2c1 [Compound 167, 3-(5-methoxybenzo[b]thiophen-2-yl)-N-(3,4-dimethoxyphenyl)imidazo[1,2-b]pyridazin-6-amine]
500 to 1000 nM	O=C(O)c1ccc(Nc2ccc3ncc(-c4cc5ccccc5s4)n3n2)cc1 [Compound 25, 4-(3-(benzo[b]thiophen-2-yl)imidazo[1,2-b]pyridazin-6-ylamino)benzoic acid]
100 to 500 nM	OCCCNc1ccc2ncc(-c3cc4ccccc4s3)n2n1 [Compound 109, 3-(3-(benzo[b]thiophen-2-yl)imidazo[1,2-b]pyridazin-6-ylamino)propan-1-ol]
